Calls of active or inactive are those of the source.
Legend:
[1] = A Cell Based Secondary Assay To Explore Cytotoxicity of Compounds that Sensitize Mycobacterium Tuberculosis to Beta-Lactam Antibiotics.; assay type: functional
Cytochrome P450 2D6 = Cytochrome P450 2D6 (Homo sapiens, UniProt P10635);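 also: CYP2D6 member of a cytochrome P450 panel assay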
[2] = target: T1, Adenosylmethionine-8-amino-7-oxononanoate aminotransferase (Mycobacterium tuberculosis, UniProt P9WQ81); experiment: Mycobacterium tuberculosis BioA enzyme inhibitor Measured in Biochemical System Using Plate Reader - 2163-02_Inhibitor_Dose_CherryPick_Activity.; assay type: functional, Mycobacterium tuberculosis UT205
T1 sequence (P9WQ81 whole entry): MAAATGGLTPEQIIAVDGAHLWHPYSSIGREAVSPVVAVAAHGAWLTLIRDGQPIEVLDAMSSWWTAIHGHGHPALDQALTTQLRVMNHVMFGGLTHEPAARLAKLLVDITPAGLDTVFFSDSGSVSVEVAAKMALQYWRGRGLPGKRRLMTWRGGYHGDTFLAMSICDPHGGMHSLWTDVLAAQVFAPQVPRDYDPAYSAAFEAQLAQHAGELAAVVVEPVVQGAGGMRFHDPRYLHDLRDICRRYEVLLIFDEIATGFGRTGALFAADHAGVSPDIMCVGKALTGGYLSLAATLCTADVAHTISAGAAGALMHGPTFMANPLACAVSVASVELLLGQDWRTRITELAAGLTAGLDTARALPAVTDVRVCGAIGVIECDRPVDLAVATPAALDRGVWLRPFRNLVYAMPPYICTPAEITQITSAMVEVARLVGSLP

[3] = inhibitors of intracellular T. cruzi replication, confirmation, NIH3T3 host cells, beta-gal luminescence (AID 2044); assay type: functional, cell-based;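 also: intracellular parasites grown in NIH/3T3 mouse fibroblasts as host cells; luminescent beta-galactosidase reporter signal from transgenic T. cruzi replicating inside host cells; inhibitors lower the luminescence signal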
[4] = cytotoxicity toward NIH3T3 fibroblasts, dose response, counter-screen, cell-based, ATP luminescence, mouse fibroblasts (AID 2010); assay type: functional;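 also: cells exposed to compound for about 90 hours before reading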
INS1 = experiment: beta cell apoptosis inhibitors, cytokine rescue, dose response, luminescence, retest (AID 449756); assay type: functional, cell-based; settings: Rattus norvegicus;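 also: cell death triggered by IL-1 beta plus TNF-alpha plus IFN-gamma mixture; protective hits raise ATP signal compared with cytokine alone wells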
[5] = THP-1 cell cytotoxicity, dose response, cytotoxicity control for Vif-APOBEC3G degradation inhibitor project, THP-1 cells (AID 1117359); assay type: functional; settings: Human immunodeficiency virus 1, THP-1
Beta-galactosidase = Beta-galactosidase (Escherichia coli, UniProt Q8VNN2); experiment: PubChem AID 485352; assay type: functional
Sequence of Beta-galactosidase (Q8VNN2 whole entry): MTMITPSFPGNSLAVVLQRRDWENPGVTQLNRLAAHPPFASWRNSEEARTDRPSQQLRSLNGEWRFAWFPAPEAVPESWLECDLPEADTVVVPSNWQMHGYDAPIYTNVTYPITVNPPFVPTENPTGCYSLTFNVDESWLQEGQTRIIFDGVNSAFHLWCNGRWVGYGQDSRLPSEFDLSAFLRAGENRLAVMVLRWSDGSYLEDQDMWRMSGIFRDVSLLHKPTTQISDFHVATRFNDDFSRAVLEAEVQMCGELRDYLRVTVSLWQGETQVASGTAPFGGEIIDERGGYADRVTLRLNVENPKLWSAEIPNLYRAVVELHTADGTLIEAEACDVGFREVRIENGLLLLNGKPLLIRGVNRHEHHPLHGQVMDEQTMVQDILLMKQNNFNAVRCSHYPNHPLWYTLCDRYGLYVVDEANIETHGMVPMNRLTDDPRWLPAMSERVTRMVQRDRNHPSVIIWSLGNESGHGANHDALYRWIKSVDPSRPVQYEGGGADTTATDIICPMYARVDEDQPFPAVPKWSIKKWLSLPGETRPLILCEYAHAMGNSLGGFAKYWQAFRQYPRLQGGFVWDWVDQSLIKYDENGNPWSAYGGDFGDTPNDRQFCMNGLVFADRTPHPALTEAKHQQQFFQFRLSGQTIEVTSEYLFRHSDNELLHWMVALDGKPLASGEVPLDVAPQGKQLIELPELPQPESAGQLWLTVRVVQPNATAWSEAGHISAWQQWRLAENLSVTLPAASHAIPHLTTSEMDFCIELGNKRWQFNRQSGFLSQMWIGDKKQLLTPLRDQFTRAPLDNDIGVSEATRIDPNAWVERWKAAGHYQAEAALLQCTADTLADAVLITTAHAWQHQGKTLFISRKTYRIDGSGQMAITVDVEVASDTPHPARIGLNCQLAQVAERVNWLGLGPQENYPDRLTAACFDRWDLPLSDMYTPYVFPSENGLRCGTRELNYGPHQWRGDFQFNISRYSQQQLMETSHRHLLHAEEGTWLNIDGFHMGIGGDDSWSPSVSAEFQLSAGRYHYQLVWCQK

[6] = target: T2, Type-1 angiotensin II receptor (Homo sapiens, UniProt P30556); experiment: AT1 receptor antagonists, dose response, selectivity assay for APJ receptor antagonist project, cell-based, uHTS hits (AID 463214); assay type: functional;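 also: antagonist potency against angiotensin II stimulated AT1 response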
T2 sequence (P30556 whole entry): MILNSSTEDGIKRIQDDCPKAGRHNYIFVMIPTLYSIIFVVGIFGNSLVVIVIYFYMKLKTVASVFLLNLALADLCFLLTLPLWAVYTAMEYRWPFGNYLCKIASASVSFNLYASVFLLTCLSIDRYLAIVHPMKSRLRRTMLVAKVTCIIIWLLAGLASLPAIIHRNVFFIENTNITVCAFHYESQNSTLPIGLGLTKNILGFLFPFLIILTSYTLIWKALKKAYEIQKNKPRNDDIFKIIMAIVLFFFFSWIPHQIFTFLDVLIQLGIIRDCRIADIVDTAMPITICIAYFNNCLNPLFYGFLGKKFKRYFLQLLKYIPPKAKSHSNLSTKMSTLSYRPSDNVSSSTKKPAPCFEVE

[7] = system: Streptococcus sp. 'group A'; experiment: growth inhibition of control SK(-) GAS strain, dose response, counter-screen for streptokinase expression inhibitor project, luminescence, kanamycin, BacTiterGlo, confirmation (AID 1900); assay type: functional, organism-based
Streptokinase A = target: T3, Streptokinase A (Streptococcus pyogenes serotype M1, UniProt P10520); experiment: S. pyogenes streptokinase expression inhibitors, potency, dose response, plasminogen activation absorbance, OD405 (AID 1914); assay type: functional, Streptococcus pyogenes M1 GAS;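 also: secreted streptokinase activity via plasminogen activation per viability signal from cell pellet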
T3 sequence (P10520 whole entry): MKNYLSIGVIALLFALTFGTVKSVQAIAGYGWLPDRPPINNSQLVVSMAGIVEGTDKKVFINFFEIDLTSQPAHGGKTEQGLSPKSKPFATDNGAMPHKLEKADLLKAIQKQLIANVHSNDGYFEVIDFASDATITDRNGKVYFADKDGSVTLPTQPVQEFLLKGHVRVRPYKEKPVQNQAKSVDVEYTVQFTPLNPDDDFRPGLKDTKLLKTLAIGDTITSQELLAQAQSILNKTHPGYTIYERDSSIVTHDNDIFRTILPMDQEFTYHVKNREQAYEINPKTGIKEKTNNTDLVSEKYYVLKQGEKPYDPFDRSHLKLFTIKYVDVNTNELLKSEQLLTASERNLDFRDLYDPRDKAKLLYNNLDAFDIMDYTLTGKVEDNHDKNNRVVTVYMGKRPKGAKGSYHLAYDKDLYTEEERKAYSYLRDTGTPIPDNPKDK

Streptococcus = experiment: Group A Streptococcus viability loss, dose response, counter-screen for streptokinase expression inhibitor project, luminescence, BacTiterGlo (AID 1915); assay type: functional, organism-based;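 also: potency for reduction of bacterial viability or growth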
Caspase-3 [8] = target: T4, Caspase-3 (Homo sapiens, UniProt P42574); assay type: functional
T4 sequence (P42574 whole entry): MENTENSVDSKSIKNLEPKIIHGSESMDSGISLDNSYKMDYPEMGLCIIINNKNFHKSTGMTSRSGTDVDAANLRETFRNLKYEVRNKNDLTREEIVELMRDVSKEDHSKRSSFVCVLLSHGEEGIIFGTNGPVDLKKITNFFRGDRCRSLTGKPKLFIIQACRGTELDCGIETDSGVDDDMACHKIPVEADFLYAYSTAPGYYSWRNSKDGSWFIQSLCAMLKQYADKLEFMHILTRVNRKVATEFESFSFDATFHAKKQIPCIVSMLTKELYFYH

[9] = target: T5, Sentrin-specific protease 7 (Homo sapiens, UniProt Q9BQF6); assay type: functional;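 also: Luminescence-based dose-response confirmation of ultra-high-throughput screening hits, measuring inhibition of SENP7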
T5 sequence (Q9BQF6 whole entry): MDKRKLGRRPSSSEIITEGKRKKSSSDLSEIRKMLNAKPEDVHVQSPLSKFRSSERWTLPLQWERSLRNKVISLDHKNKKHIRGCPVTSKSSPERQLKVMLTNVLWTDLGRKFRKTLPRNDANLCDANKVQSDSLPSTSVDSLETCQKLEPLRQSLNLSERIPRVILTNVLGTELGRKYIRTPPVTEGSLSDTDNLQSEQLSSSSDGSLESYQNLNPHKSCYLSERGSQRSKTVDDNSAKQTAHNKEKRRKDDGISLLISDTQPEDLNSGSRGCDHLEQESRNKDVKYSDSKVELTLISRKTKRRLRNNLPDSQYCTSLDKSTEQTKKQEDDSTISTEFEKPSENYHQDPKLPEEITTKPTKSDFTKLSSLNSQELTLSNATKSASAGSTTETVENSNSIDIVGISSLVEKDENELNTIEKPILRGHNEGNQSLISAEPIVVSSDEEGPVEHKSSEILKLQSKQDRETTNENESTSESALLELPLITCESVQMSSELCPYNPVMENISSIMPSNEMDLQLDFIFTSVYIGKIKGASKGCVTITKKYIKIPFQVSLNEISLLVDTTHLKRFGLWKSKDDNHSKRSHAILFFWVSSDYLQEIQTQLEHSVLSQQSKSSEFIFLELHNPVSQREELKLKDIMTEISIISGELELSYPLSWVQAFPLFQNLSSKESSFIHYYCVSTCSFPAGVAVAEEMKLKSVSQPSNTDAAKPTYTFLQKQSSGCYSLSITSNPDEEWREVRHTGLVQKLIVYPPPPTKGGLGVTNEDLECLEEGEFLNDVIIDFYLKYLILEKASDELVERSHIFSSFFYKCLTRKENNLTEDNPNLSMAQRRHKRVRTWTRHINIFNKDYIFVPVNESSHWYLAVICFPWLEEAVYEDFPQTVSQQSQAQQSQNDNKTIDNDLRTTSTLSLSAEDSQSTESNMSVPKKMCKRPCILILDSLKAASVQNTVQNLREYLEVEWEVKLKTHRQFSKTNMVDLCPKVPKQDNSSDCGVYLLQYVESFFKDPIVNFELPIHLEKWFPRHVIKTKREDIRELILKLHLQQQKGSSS

[10] = target: T6, Sentrin-specific protease 6 (Homo sapiens, UniProt Q9GZR1); assay type: functional
T6 sequence (Q9GZR1 whole entry): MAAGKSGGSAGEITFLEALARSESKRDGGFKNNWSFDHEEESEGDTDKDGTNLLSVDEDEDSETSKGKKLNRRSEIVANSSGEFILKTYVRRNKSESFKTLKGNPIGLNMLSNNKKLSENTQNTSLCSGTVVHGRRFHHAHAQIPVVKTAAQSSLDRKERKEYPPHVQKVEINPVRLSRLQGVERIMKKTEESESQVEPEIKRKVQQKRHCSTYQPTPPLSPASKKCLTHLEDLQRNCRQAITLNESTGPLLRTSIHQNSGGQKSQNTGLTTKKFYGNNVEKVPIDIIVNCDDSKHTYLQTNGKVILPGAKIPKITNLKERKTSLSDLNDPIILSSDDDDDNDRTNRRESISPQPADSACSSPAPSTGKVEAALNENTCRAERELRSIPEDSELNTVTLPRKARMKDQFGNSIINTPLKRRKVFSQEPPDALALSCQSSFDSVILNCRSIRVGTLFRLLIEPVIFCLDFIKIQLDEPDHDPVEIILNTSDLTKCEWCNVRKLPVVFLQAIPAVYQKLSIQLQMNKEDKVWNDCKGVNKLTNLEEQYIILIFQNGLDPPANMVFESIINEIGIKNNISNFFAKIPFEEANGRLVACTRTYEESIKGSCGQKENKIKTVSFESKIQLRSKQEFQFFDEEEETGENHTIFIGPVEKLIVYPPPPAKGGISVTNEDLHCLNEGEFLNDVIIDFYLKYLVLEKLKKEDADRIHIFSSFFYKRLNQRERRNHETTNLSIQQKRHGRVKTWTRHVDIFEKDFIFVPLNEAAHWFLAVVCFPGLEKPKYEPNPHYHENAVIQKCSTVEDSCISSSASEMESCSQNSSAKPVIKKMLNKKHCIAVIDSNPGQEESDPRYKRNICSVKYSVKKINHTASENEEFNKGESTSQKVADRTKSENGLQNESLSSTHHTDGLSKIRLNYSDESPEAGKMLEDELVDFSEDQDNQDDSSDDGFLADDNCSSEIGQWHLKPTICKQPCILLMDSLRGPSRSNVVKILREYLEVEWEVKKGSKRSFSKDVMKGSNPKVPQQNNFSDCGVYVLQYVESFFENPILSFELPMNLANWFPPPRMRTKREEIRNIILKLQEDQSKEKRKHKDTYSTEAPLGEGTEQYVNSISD

[11] = target: T7, Sentrin-specific protease 8 (Homo sapiens, UniProt Q96LD8); assay type: functional;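 also: luminescence read-out of SENP8 inhibition, dose-response confirmation following an ultra-high-throughput screen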
T7 sequence (Q96LD8 whole entry): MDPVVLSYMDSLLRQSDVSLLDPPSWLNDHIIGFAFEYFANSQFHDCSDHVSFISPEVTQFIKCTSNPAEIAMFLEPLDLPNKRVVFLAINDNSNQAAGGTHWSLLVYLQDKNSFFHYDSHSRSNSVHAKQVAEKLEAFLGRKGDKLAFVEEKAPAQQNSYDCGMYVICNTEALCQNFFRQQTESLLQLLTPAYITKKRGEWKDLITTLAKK

Caspase-3 [12] = target: T4, Caspase-3; experiment: SAR Analysis of small molecule inhibitors of Sentrin-specific proteases (SENPs) using a Caspase-3 Selectivity assay. [Related pubchem assays (depositor defined):AID2540, AID2599, AID434973, AID489001]; assay type: functional
[13] = target: T6, Sentrin-specific protease 6; experiment: SAR Analysis of small molecule inhibitors of Sentrin-specific protease 6 (SENP6) using a Luminescent assay. [Related pubchem assays (depositor defined):AID2582, AID2599]; assay type: functional
[14] = target: T5, Sentrin-specific protease 7; experiment: SENP7 protease inhibitors, SAR follow-up, biochemical, luminescence (AID 504497); assay type: functional

Sequence of Cytochrome P450 2D6 (P10635 whole entry): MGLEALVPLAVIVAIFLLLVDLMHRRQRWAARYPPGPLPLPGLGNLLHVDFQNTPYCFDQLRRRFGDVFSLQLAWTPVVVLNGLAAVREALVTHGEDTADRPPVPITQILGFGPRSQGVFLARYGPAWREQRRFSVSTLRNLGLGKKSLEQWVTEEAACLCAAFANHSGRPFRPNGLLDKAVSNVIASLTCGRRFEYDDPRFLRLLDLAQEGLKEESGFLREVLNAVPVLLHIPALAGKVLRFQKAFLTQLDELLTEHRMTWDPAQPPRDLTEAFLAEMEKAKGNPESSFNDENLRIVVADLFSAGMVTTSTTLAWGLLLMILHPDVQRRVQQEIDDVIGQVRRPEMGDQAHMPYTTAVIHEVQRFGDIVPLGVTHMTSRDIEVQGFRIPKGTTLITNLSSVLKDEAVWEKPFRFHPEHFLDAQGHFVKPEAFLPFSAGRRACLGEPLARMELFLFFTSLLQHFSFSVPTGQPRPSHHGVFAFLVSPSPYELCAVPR

## CCCn1nnnc1NC(=O)COc1ccc(Cl)cc1C
[1]
  CC50: 34.5 µM (active)
Cytochrome P450 2D6
  AC50: 25.1 µM (inconclusive)

## COC(=O)c1c(C(=O)OC)c(-c2ccc(F)cc2)n2c1C[S+]([O-])C2 (stereo not given)
[2]
  AC50: 10.3 µM (active)

## NC(=O)c1ccc(Oc2cccc3cccnc23)c([N+](=O)[O-])c1
[2]
  AC50: 2.3 µM (active)

## COc1cc(OC)c(OC)cc1CNCCc1ccc(F)cc1
[3]
  EC50: < 0.1 µM (active)
[4]
  EC50: > 60 µM (not active)
cells
  EC50: 0.055 µM (active)

## CCOC(=O)c1ccc(-[n+]2c(-c3ccccc3)cc(-c3ccccc3)cc2-c2ccccc2)cc1.[O-][Cl+3]([O-])([O-])[O-]
[3]
  EC50: < 0.1 µM (active)
[4]
  EC50: > 60 µM (not active)
INS1
  AC50: 2.02 µM (active)
cells
  EC50: 0.047 µM (active)

## CCOC(=O)c1ccc(N2C(=O)c3[nH]nc(C)c3C2c2ccc(OC)cc2OC)cc1 (stereo not given)
[5]
  CC50: > 40 µM (active)

## Nc1ccc(N=Nc2ccccc2O)c(N)c1
[1]
  CC50: > 40 µM (active)

## CN(C)CCN(Cc1ccco1)C(=O)c1cc2c(Cl)nc3ccccc3c2s1
Beta-galactosidase
  EC50: > 40 µM (inactive)
[3]
  EC50: < 0.1 µM (active)
[6]
  IC50: 33.8 µM (not active)
[4]
  EC50: 9.5 µM (active)
cells
  EC50: 0.115 µM (active)

## CN(C)CCNc1ccc(-c2nn(C)c(=O)c3ccccc23)cc1[N+](=O)[O-]
[3]
  EC50: < 0.1 µM (active)
[4]
  EC50: > 60 µM (not active)
cells
  EC50: 0.062 µM (active)

## Cc1cccc(C(=O)Nc2scc(-c3ccc(Br)cc3)c2C(=O)O)c1
[7]
  EC50: 2.33 µM (active)
Streptokinase A
  EC50: > 150 µM (not active)
Streptococcus
  EC50: 8.14 µM (active)
Caspase-3 [8]
  IC50: 5.21 µM (active)
[9]
  IC50: > 100 µM (inactive)
[10]
  IC50: 4.28 µM (active)
[11]
  IC50: 3.72 µM (active)
Caspase-3 [12]
  IC50: 4.89 µM (active)
[13]
  IC50: 3.42 µM (active)
[14]
  IC50: 6.38 µM (active)

## C[C@H](CO)N1C[C@H](C)[C@@H](CN(C)Cc2ccc3c(c2)OCO3)Oc2ccc(NC(=O)Cn3cnnn3)cc2CC1=O
[2]
  AC50: 13 µM (active)

## COC(=O)C[C@@H]1CC[C@@H]2[C@H](COC[C@@H](O)CN2C(=O)Nc2cccc(F)c2)O1
[2]
  AC50: 10 µM (active)

## O=C(c1cccc(F)c1)N1CC[C@@H]2[C@H]1c1cc(-c3cccc(F)c3)ccc1N[C@@H]2CO
[2]
  AC50: 5.94 µM (active)

## O=C(N/N=C1\CCC\C1=C(/O)C(F)(F)F)c1cccc(O)c1
[1]
  CC50: 32.2 µM (active)

— ChEMBL document CHEMBL1201862, “PubChem BioAssay data set” (2004)
